{"source": "paper PMC4657899", "about": "“Design, Synthesis and In Vitro Activity of Anticancer Styrylquinolines. The p53 Independent Mechanism of Action” (PLoS ONE, 2015)", "key": {"HCT116 p53-/- cells": {"tested_on": "HCT116 p53-/- cells", "parameters": "method as in PMID 12027451", "conditions": "cited from earlier work"}, "GM 07492": {"tested_on": "GM 07492", "assay": "MTS cytotoxicity assay, normal fibroblasts GM 07492", "type": "cell-based", "conditions": "Fibroblast, 72 h incubation, normal human fibroblasts, mean ± SD", "method": "(§1) The human colon adenocarcinoma cell line HCT116 along with wild type p53 (p53^+/+) were obtained from the ATCC. The normal human fibroblast cell line GM 07492 and HCT116 with a p53 deletion (p53^-/-) were kindly provided by prof. M. Rusin from Maria Sklodowska-Curie Memorial Cancer Center and Institute of Oncology in Gliwice, Poland. Cells were grown as monolayer cultures in 75 cm^2 flasks (Nunc) in Dulbecco’s modified Eagle’s medium with an antibiotic gentamicin (200 μL/100 mL medium). DMEM for HCT116 were supplemented with 12% heat-inactivated fetal bovine serum (Gibco) and for GM 07492 with 15% fetal bovine serum (Gibco). Cells were cultured under standard conditions at 37°C in a humidified atmosphere at 5% CO2.\n(§2) The cells were seeded in 96-well plates 24 h before the addition of the compounds that were tested. The assay was performed following a 72 h incubation with varying concentrations of the agents that were tested. The results were calculated as IC50 values (using GraphPad Prism 5). Each individual compound was tested in triplicate in a single experiment with each experiment being repeated three times. After a 72 h incubation with the compounds that were tested, 20 μL of The CellTiter 96®AQueous One Solution—MTS (Promega) solution was added to each well (with 100 μL DMEM without phenol red) and incubated for 1 h at 37°C. The optical densities of the samples were analyzed at 490 nm. Results were expressed as a percentage of the control."}, "HCT116 (p53-/-)": {"tested_on": "HCT116 (p53-/-)", "assay": "MTS anti-proliferative assay, HCT116 (p53-/-)", "type": "cell-based, human", "conditions": "Homo sapiens, HCT-116; MTS, 72 h incubation, mean ± SD", "method": "as §1, §2"}, "HCT116 (p53+/+)": {"tested_on": "HCT116 (p53+/+)", "assay": "MTS anti-proliferative assay, HCT116 (p53+/+)", "type": "cell-based, human", "conditions": "Homo sapiens, HCT-116, 72 h incubation, mean ± SD", "method": "as §1, §2"}, "[1]": {"tested_on": "caspase-3 and -7 in HCT116 (p53+/+) cells", "assay": "Caspase-Glo 3/7 assay, HCT116 (p53+/+)", "type": "cell-based, human", "conditions": "IC50 concentration, 48 h, relative to doxorubicin", "method": "(§3) To measure caspase-3 and -7 activities, a luminescent Caspase-Glo 3/7 assay was performed. HCT116 (p53^+/+) and (p53^-/-) cells were seeded onto black 96-well plates at a density of 3,500 cells/well. […] After 48 h a Caspase-Glo 3/7 Assay (Promega) was performed according to the manufacturer’s instructions. After adding 100 μL of Caspase3/7 GloReagent, cells were incubated for 2.5 h at room temperature. The luminescence was measured using a multi-plate reader (Synergy 4, Bio Tek) with an integration time of 1 second per well. The experiments were performed in duplicate."}, "[2]": {"tested_on": "caspase-3 and -7 in HCT116 (p53-/-) cells", "assay": "Caspase-Glo 3/7 assay, HCT116 (p53-/-)", "type": "cell-based, human", "conditions": "IC50 concentration, 48 h", "method": "as §3"}, "Calf-thymus DNA (CT-DNA)": {"tested_on": "Calf-thymus DNA (CT-DNA)", "assay": "Spectrophotometric DNA binding (intercalation) study with CT-DNA", "method": "For the DNA binding studies, Calf-thymus DNA (CT-DNA) was purchased from Sigma Aldrich. The lyophilized CT-DNA was dissolved in 10 mM Tris-HCl, pH 7.9, mixed gently and left overnight at 4°C. Then, the concentration of CT-DNA was determined from the absorbance at 260 nm using an extinction coefficient of 6600 M^-1cm^-1. […] Afterwards, 18 μM CT-DNA was added to the prepared solutions and were incubated for 1.5 h at 37°C with occasional vortexing. Absorption spectra were measured using a Hitachi U-2900 spectrophotometer in range of 200–600 nm. All absorption spectra were imported and compared in OriginPro 8.0."}, "[3]": {"conditions": "18 μM CT-DNA, CP-31398 absorption band 350"}}}
{"compound": "COc1ccc(/C=C/c2nc(NCCCN(C)C)c3ccccc3n2)cc1", "note": "[CP-31398]", "values": [{"measurement": "activity against HCT116 p53-/- cells versus wild-type (p53+/+)", "setting": "HCT116 p53-/- cells", "value": "several times less active"}, {"measurement": "IC50", "setting": "GM 07492", "value": "12.3 ± 0.54", "unit": "µM"}, {"measurement": "IC50", "setting": "HCT116 (p53-/-)", "value": "26.3 ± 1.41", "unit": "µM"}, {"measurement": "IC50", "setting": "HCT116 (p53+/+)", "value": "18.6 ± 0.92", "unit": "µM"}, {"measurement": "Caspase-3/7 activity in wild type cells", "setting": "[1]", "value": "two times higher than doxorubicin"}, {"measurement": "Caspase-3/7 activity in p53-/- cells", "setting": "[2]", "value": "did not increase the activity of caspases"}, {"measurement": "% hypochromism", "setting": "Calf-thymus DNA (CT-DNA); 18 μM CT-DNA, 1.5 h 37°C, Tris-HCl pH 7.9, at the (first) absorption band (CP-31398: 312)", "value": "41,4%"}, {"measurement": "% hypochromism, second absorption band", "setting": "Calf-thymus DNA (CT-DNA); [3]", "value": "37,4%"}, {"measurement": "Δε, second absorption band", "setting": "Calf-thymus DNA (CT-DNA); [3]", "value": "1693,3 M−1 cm−1"}, {"measurement": "Δε", "setting": "Calf-thymus DNA (CT-DNA); 18 μM CT-DNA, at the (first) absorption band (CP-31398: 312)", "value": "1515,6 M−1 cm−1"}, {"measurement": "shift of the wavelength of maximum absorption, alone vs DNA-bound", "setting": "Calf-thymus DNA (CT-DNA); S3 Table, 18 μM CT-DNA", "value": 0}, {"measurement": "Changes in absorbance", "setting": "Calf-thymus DNA (CT-DNA); S3 Table, with CT-DNA", "value": "hypochromism"}]}
